What all share (type): binding
Assay [1] concerns the target T1, panel of 442 kinases (Homo sapiens, UniProt Q13523).
T1 construct: purchased KINOMEscan
The following applies: Compound Concentration 10 µM. An excerpt:
(§1) We assessed the selectivity of members of this scaffold using the KINOMEscan methodology across a near comprehensive panel of 442 kinases [[18,27]].

In assay [2] the target is T2, panel of 442 kinases (Homo sapiens, UniProt Q92918).
T2 construct: purchased KINOMEscan
The following applies: Compound Concentration 10 µM.
Source text: as §1

Assay [3] deals with T3, panel of 442 kinases (Homo sapiens, UniProt Q9UIK4).
T3 construct: purchased KINOMEscan
T3 sequence (Q9UIK4 whole entry): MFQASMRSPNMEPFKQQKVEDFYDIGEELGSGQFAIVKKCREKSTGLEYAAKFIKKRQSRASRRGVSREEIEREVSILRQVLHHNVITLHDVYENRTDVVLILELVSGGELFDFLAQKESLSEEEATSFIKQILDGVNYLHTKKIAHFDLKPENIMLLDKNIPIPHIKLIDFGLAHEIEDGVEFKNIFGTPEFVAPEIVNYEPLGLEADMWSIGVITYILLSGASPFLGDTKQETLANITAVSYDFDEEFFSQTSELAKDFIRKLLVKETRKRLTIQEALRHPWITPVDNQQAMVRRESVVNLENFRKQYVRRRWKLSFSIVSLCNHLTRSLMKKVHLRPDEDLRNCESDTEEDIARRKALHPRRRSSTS
The following applies: Compound Concentration 10 µM.
Source text: as §1

For assay [4], the target named is T4, panel of 442 kinases (Homo sapiens, UniProt Q9UPE1).
T4 construct: purchased KINOMEscan
T4 sequence (Q9UPE1 whole entry): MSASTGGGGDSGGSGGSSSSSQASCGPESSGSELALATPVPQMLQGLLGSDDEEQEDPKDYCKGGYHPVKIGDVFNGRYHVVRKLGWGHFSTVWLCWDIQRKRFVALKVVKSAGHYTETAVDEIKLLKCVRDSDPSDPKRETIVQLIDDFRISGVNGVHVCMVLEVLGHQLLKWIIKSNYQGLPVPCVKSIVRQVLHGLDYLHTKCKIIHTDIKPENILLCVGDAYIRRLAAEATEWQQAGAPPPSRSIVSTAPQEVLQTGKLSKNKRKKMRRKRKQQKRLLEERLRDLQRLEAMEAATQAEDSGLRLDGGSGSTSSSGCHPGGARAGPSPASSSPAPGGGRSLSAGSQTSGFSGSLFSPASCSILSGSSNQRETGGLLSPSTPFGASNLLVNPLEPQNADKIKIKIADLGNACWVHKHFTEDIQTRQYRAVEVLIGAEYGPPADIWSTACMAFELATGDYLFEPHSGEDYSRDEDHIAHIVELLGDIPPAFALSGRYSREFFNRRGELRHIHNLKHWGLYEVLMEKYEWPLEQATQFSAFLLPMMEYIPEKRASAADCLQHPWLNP
As to conditions: kinase SRPK3; compound concentration 10 µM.
Source text: as §1

T1 sequence (Q13523 whole entry): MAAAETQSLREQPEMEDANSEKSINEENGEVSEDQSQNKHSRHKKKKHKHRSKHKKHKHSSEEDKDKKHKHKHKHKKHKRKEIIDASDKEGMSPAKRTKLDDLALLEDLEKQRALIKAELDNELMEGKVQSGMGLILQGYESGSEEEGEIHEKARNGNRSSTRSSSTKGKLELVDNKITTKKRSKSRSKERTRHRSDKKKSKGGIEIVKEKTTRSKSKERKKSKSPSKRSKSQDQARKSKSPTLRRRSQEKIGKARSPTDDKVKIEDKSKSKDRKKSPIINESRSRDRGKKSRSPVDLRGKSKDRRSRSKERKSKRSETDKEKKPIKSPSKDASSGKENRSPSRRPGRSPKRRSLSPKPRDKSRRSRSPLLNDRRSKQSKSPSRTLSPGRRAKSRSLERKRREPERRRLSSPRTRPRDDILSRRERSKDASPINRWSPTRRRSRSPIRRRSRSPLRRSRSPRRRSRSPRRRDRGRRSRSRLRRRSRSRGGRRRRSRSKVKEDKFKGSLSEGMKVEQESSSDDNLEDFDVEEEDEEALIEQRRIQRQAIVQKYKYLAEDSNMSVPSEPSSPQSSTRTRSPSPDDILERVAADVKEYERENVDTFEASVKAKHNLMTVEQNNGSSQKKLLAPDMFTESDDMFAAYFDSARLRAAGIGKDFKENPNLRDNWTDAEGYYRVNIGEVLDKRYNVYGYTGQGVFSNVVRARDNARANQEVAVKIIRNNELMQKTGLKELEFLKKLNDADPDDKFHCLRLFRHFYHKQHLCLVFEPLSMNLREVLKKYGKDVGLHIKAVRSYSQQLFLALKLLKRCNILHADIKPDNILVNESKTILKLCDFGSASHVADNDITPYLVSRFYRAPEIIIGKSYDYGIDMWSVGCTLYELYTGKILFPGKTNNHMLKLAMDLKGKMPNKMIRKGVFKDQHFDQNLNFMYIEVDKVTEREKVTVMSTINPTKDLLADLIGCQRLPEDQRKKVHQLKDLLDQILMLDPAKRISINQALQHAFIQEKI
T2 sequence (Q92918 whole entry): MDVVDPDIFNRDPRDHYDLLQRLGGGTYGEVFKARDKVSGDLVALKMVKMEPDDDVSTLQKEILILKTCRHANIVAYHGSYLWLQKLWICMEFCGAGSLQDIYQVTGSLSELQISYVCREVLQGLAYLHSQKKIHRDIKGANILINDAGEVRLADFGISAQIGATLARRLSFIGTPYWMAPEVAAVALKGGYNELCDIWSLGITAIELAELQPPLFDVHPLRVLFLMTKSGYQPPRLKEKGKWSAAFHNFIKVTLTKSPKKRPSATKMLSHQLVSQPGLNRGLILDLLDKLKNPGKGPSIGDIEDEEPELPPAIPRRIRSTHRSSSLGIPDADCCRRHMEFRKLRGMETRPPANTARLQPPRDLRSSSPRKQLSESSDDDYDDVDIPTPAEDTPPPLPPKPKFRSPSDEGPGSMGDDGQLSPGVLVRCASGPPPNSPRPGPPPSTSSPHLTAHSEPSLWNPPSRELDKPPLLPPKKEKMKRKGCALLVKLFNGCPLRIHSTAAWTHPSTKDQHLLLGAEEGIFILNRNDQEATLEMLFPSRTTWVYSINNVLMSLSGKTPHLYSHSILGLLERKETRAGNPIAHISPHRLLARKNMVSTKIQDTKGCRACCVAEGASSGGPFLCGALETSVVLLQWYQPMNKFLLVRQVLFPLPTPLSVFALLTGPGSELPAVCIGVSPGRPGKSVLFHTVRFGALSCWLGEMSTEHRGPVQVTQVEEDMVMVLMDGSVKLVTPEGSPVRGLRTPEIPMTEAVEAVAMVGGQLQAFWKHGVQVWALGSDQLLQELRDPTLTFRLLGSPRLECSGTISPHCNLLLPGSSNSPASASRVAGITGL

Regarding `CCOc1cc(C(=O)N2CCC(N3CCN(C)CC3)CC2)ccc1Nc1ncc2c(n1)N(C1CCCC1)c1ccccc1C(=O)N2C` [Compound 26], the “KINOMEscan: PRP4” value at panel of 442 kinases [1] came out at 100. In addition, the “KINOMEscan: HPK1” value at panel of 442 kinases [2] is 94. Also, the “KINOMEscan: DAPK2” value at panel of 442 kinases [3] came out at 99. Further, the “% Ctrl, SRPK3” value on panel of 442 kinases [4] came out at 100 % Ctrl.

For the compound `COc1cc(C(=O)N2CCC(N3CCN(C)CC3)CC2)ccc1Nc1ncc2c(n1)N1CCc3cccc(c31)C(=O)N2C` [Compound 24], the “KINOMEscan: DAPK2” value on panel of 442 kinases [3] was 22. Besides, the “% Ctrl, SRPK3” value at panel of 442 kinases [4] is reported as 91 % Ctrl.

For `COc1cc(C(=O)N2CCC(N3CCN(C)CC3)CC2)ccc1Nc1ncc2c(n1)N(C)c1ccccc1C(=O)N2C` [15 (LRRK2-IN-1)], the “KINOMEscan: PRP4” value on panel of 442 kinases [1] worked out at 93. For the same compound, the “KINOMEscan: HPK1” value at panel of 442 kinases [2] was determined as 100. The “KINOMEscan: DAPK2” value at panel of 442 kinases [3] was 67. In addition, on panel of 442 kinases [4], the “% Ctrl, SRPK3” value turned out to be 72 % Ctrl.

Take `COc1cc(C(=O)N2CCC(N3CCN(C)CC3)CC2)ccc1Nc1ncc2c(n1)N(C1CCCC1)c1ccccc1C(=O)N2C` [Compound 25, 11-cyclopentyl-2-((2-methoxy-4-(4-(4-methylpiperazin-1-yl)piperidine-1-carbonyl)phenyl)amino)-5-methyl-5H-benzo[e]pyrimido[5,4-b][1,4]diazepin-6(11H)-one]: the “KINOMEscan: PRP4” value on panel of 442 kinases [1] was determined as 95. Also, the “KINOMEscan: HPK1” value on panel of 442 kinases [2] is recorded as 89. On panel of 442 kinases [3], the “KINOMEscan: DAPK2” value was 90. The “% Ctrl, SRPK3” value on panel of 442 kinases [4] was 91 % Ctrl.
